Reference: article PMC3454389, “Mining the Sinorhizobium meliloti Transportome to Develop FRET Biosensors for Sugars, Dicarboxylates and Cyclic Polyols” (PLoS ONE, 2012)

Key:
[1] = target: SMc02324-CY (Sinorhizobium meliloti, UniProt Q92S11); test: FRET biosensor SMc02324-CY, in vitro ligand titration; type: binding; conditions: for reaction of biosensor with compound (FRET) / Kd: SMc02324-CY; for Kd: pCYS (pLMB291), Tris-HCl pH 8.5
Protocol: (§1) Ligand-induced FRET ratio changes of purified FRET biosensor were screened using a LS55 luminescence spectrometer (PerkinElmer Instruments). Excitation (ex.) was at (λ/slit width) 433/10 nm (CFP) or 549/10 nm (OFP). Emission (em.) was measured at 475/10 nm (CFP), 527/10 nm (YFP), 573/10 nm (OFP) and 644/10 nm (RFP). To confirm that Aphrodite and mKate2 were properly folded their fluorescence was individually tested by direct excitation at 510/6 nm and 588/10 nm respectively.
(§2) Affinity constants (Kd) of FRET biosensors with specific ligands were established using a monochromator microplate reader (Safire, Tecan, Switzerland; CFP ex.: (λ\bandwidth) 433/12 nm, em.: 475/12 nm; YFP em.: 527/12 nm. OFP ex.: 533/12 nm, em.: 563/12 nm; RFP em.: 615/12 nm). Proteins were diluted to give relative fluorescence units (RFU) in the detection range of 30,000 to 50,000 RFU at a gain of 90 to 100, and then were added to a dilution series (10^−3 to 10^−11 M) of ligand in Tris-HCl (pH 8.5, 50 mM). The change in relative emission intensities at 527/477 nm (YFP/CFP) or 615/563 nm (RFP/OFP) was used to determine Kd by fitting the titration curves to a single-site-binding isotherm: [drawing 1] with: R, ratio; Rapo, ratio without ligand; Rsat, ratio at saturation of ligand; n, number of equal binding sites; [L], ligand concentration. Non-linear regression was used to fit the curves using SigmaPlot 11 (Systat Software Inc.) (Hill equation, 4 Parameters, b = 1). All measurements were done in quadruplicate.

[2] = target: T1, SMb20712-CY (Sinorhizobium meliloti, UniProt Q926E6); test: FRET biosensor SMb20712-CY, in vitro ligand titration; type: binding
T1 sequence (Q926E6 21-309): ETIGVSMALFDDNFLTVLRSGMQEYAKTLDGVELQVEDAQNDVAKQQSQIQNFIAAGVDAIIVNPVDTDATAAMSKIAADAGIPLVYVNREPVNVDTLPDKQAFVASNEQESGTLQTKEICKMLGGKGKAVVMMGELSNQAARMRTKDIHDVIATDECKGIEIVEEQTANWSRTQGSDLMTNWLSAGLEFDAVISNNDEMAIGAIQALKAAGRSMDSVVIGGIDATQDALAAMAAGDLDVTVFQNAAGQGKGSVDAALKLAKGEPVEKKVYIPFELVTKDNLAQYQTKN
Protocol: as §1, §2

[3] = target: T2, rcc03024-CY (DctP) (Rhodobacter capsulatus, UniProt P37735); test: FRET biosensor rcc03024-CY, in vitro ligand titration; type: binding; conditions: for Kd: pCYS (pLMB414), Tris-HCl pH 8.5; for ΔFRET on saturation (%): change in FRET ratio on ligand binding
T2 construct: made in house; host or cells: E. coli Rosetta2
T2 sequence (P37735 27-333): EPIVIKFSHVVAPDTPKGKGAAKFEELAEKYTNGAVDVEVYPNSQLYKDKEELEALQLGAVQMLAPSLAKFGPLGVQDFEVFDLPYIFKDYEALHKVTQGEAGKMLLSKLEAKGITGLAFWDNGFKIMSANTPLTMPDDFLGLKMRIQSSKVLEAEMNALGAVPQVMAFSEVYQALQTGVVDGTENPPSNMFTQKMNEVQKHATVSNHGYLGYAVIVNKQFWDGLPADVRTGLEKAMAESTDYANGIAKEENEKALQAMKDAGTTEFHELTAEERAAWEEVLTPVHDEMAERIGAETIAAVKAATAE
Description: Ligand-induced FRET ratio changes of purified FRET biosensor were screened using a LS55 luminescence spectrometer (PerkinElmer Instruments).
Non-linear regression was used to fit the curves using SigmaPlot 11 (Systat Software Inc.) (Hill equation, 4 Parameters, b = 1). All measurements were done in quadruplicate.

[4] = target: T3, RL2376-CY (Rhizobium leguminosarum, UniProt Q1MGQ3); test: FRET biosensor RL2376-CY, in vitro ligand titration; type: binding
T3 sequence (Q1MGQ3 24-320): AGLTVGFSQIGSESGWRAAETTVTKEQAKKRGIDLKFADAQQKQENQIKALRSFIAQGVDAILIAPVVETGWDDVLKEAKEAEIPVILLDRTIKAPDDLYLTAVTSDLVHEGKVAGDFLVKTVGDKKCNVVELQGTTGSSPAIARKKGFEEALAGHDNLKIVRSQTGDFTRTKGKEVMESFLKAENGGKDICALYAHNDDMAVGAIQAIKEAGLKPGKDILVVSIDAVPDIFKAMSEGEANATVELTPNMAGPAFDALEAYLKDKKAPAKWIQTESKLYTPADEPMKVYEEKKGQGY
Protocol: as §1, §2

[5] = test system: SMc04259-RO; test: SMc04259-RO, FRET ratio change on ligand; type: binding, Sinorhizobium meliloti
Protocol: as §1
as §2, with “Non-linear regression was used to fit the curves using SigmaPlot 11 (Systat Software Inc.) (Hill equation, 4 Parameters, b = 1). All measurements were done in quadruplicate.” left out

[6] = target: T4, rcc03024-RO (Rhodobacter capsulatus, UniProt P37735); test: rcc03024-RO, FRET ratio change on ligand; type: binding
T4 construct: made in house; host or cells: E. coli Rosetta2
T4 sequence (P37735 27-333): T2 sequence (P37735 27-333)
Protocol: as §1
as §2, with “Non-linear regression was used to fit the curves using SigmaPlot 11 (Systat Software Inc.) (Hill equation, 4 Parameters, b = 1). All measurements were done in quadruplicate.” left out

[7] = target: SMc04259-CY (Sinorhizobium meliloti, UniProt Q92P64); test: FRET biosensor SMc04259-CY, in vitro ligand titration; type: binding; conditions: for change in FRET with compound: SMc04259-CY
Protocol: as §1, §2

[8] = target: SMc02774-CY (Sinorhizobium meliloti, UniProt Q92TD7); test: FRET biosensor SMc02774-CY, in vitro ligand titration; type: binding; conditions: for Kd / reaction of biosensor with compound (FRET): SMc02774-CY; for Kd: pCYS (pLMB292), Tris-HCl pH 8.5
Protocol: as §1, §2

[9] = target: SMc02324-RO (Sinorhizobium meliloti, UniProt Q92S11); test: FRET biosensor SMc02324-RO, in vitro ligand titration; type: binding; conditions: pROS (pLMB523), Tris-HCl pH 8.5
Protocol: as §1
as §2, with “Non-linear regression was used to fit the curves using SigmaPlot 11 (Systat Software Inc.) (Hill equation, 4 Parameters, b = 1). All measurements were done in quadruplicate.” left out

[10] = test system: genes encoding the ABC-transporter (RL2376-9); conditions: cited from earlier work
[11] = target: SMb20036-CY (Sinorhizobium meliloti, UniProt Q92XC3); test: biochemical; type: binding; conditions: compounds similar in structure to D-quinic acid
Protocol: as §1, §2

SMc02774-CY, sequence (Q92TD7 entry or part of it): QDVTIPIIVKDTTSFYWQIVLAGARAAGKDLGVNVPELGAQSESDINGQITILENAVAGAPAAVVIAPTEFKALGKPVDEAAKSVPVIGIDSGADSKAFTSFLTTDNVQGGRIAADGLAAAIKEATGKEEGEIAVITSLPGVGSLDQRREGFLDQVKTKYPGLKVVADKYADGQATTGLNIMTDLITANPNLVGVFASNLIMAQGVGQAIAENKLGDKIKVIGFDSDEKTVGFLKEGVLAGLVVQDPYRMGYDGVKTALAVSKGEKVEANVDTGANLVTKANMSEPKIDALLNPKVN
SMc02324-CY, sequence (Q92S11 entry or part of it): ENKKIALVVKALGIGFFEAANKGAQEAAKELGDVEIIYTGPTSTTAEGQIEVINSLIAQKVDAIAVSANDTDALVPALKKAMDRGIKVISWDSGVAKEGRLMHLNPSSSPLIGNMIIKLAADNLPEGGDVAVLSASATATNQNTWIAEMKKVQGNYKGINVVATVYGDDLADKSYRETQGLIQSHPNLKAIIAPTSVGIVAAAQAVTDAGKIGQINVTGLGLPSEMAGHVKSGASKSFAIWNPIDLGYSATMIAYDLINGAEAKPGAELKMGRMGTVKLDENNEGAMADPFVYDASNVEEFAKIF
SMb20036-CY, sequence (Q92XC3 entry or part of it): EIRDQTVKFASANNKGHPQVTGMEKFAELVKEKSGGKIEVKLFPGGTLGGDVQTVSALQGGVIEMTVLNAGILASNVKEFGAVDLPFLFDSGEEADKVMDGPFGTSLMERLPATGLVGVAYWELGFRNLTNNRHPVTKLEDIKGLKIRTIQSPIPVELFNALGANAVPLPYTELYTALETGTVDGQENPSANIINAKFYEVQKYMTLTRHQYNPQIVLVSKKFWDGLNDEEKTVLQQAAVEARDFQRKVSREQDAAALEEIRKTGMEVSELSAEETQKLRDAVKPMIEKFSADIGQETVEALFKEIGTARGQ
SMc04259-CY, sequence (Q92P64 entry or part of it): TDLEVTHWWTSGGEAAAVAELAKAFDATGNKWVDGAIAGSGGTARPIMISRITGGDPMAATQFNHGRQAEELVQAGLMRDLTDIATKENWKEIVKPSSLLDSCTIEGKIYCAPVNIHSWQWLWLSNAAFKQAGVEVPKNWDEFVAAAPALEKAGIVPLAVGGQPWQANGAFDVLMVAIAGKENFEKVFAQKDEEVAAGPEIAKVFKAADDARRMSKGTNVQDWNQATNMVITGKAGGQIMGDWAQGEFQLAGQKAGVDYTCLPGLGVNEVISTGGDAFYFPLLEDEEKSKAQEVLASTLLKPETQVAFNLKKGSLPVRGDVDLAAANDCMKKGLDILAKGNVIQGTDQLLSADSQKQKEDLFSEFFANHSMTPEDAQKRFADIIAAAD
SMc02324-RO, sequence (Q92S11 entry or part of it): as the sequence (Q92S11 entry or part of it) above

OC[C@@H](O)[C@@H](O)CO [erythritol]
reaction of biosensor with compound (FRET) [1]: did not react

O=P(O)(O)O[C@H]1[C@H](OP(=O)(O)O)[C@@H](OP(=O)(O)O)[C@H](OP(=O)(O)O)[C@@H](OP(=O)(O)O)[C@H]1OP(=O)(O)O [phytic acid]
reaction of biosensor with compound (FRET) [2]: did not react

O=C(O)CCC(=O)C(=O)O [α-ketoglutarate]
change in FRET ratio on addition of compound [3]: no change in FRET ratio

O=C(O)CC(O)(CC(=O)O)C(=O)O [citrate]
change in FRET ratio on addition of compound [3]: no change in FRET ratio

OC[C@@H](O)[C@@H]1OC(O)[C@H](O)[C@H]1O (stereo partly drawn) [D-galactofuranose]
Kd ([4]; hypothetical solution of pure D-galactofuranose, furanoses 7.7% of D-galactose in solution, read-out: estimated Kd for D-galactofuranose specifically): 408 ± 131 nM

gentiobiose
change in FRET ratio on binding ligand [5]: no change in FRET ratio

O=C(O)C[C@H](O)C(=O)O [L-malate]
Kd [3]: 70 nM
change in FRET ratio on binding ligand [6]: no change in FRET ratio

O=C[C@H](O)[C@@H](O)[C@H](O[C@@H]1O[C@H](CO)[C@@H](O)[C@H](O)[C@H]1O)[C@H](O)CO [cellobiose]
change in FRET ratio on binding ligand [5]: no change in FRET ratio
Kd [7]: 33 nM

C[C@H](O)[C@H](O)[C@@H](O)[C@@H](O)C=O [L-rhamnose]
Kd [8]: 1600 nM
Kd [9]: 6.9 nM
difference in affinity of SMc02324 for L-rhamnose compared to L-fucose [1]: three order-magnitude difference
Kd [1]: 7.3 nM

CC(=O)C(=O)O [pyruvate]
change in FRET ratio on addition of compound [3]: no change in FRET ratio
reaction of biosensor with compound (FRET) [8]: did not react

O[C@H]1[C@H](O)[C@@H](O)[C@H](O)[C@@H](O)[C@H]1O [myo-inositol]
Kd ([2]; pCYS (pLMB319), Tris-HCl pH 8.5): 470 nM

OC[C@H]1OC(O)[C@@H](O)[C@@H](O)[C@@H]1O (stereo partly shown) [mannose]
change in FRET with compound [7]: no change in FRET

OC1OC[C@@H](O)[C@@H](O)[C@@H]1O (stereo partly drawn) [D-arabinose]
change in FRET ratio on addition of compound [4]: no change in FRET ratio
Inducer of gene expression (fold change) ([10]; RL2376, Table 1): D-arabinose (3.6) fold
induction of genes RL2376-9 (fold) ([10]; microarray, compared with cells grown on glucose): up to 3.6 fold

OC[C@H]1O[C@@H](O[C@H]2[C@H](O)[C@@H](O)[C@H](O)O[C@@H]2CO)[C@H](O)[C@@H](O)[C@H]1O [lactose]
change in FRET with compound [7]: no change in FRET

OC[C@@H](O)[C@H](O)[C@H](O)[C@@H](O)CO [dulcitol]
reaction of biosensor with compound (FRET) [1]: did not react

O=P(O)(O)O[C@@H]1[C@H](O)[C@H](O)[C@@H](OP(=O)(O)O)[C@H](OP(=O)(O)O)[C@H]1O [inositol 1,4,5-trisphosphate]
reaction of biosensor with compound (FRET) [2]: did not react

O=C(O)CC(=O)O [malonate]
change in FRET ratio on addition of compound [3]: no change in FRET ratio

O=C(O)/C=C\C(=O)O [maleate]
change in FRET ratio on addition of compound [3]: no change in FRET ratio

O=C(O)/C=C/C(=O)O [fumarate]
ΔFRET on saturation (%) [3]: −2.7±0.2%
Kd [3]: 58 nM

O=C(O)c1ccccc1 [benzoic acid]
change in FRET ratio on addition of compound [11]: no change in FRET ratio

O=C(CO)[C@@H](O)[C@@H](O)[C@H](O)CO [tagatose]
reaction of biosensor with compound (FRET) [1]: did not react

C[C@H]1OC(O)[C@H](O)[C@@H](O)[C@H]1O (stereo partly drawn) [D-fucose]
reaction of biosensor with compound (FRET) [8]: did not react
reaction of biosensor with compound (FRET) [1]: did not react

O=C(O)c1cc(O)c(O)c(O)c1 [gallic acid]
change in FRET ratio on addition of compound [11]: no change in FRET ratio

CC(=O)N[C@H]1[C@H]([C@H](O)[C@H](O)CO)OC(O)(C(=O)O)C[C@@H]1O (stereo partly shown) [N-acetyl-5-neuraminic acid]
change in FRET ratio on addition of compound [11]: no change in FRET ratio

OC[C@H]1O[C@@H](O[C@@H]2[C@@H](CO)OC(O)(CO)[C@H]2O)[C@H](O)[C@@H](O)[C@H]1O (mixture of isomers) [lactulose]
change in FRET with compound [7]: no change in FRET

[2H]C(=O)C[C@H](O)[C@H](O)CO [deoxy-D-ribose]
reaction of biosensor with compound (FRET) [1]: did not react

OC[C@H]1O[C@H](O[C@H]2[C@H](O)[C@@H](O)[C@H](O)O[C@@H]2CO)[C@H](O)[C@@H](O)[C@@H]1O [maltose]
change in FRET with compound [7]: no change in FRET

O=C(O)CCC(=O)O [succinate]
ΔFRET on saturation (%) [3]: −2.7±0.2%
Kd [3]: 36 nM
change in FRET ratio on binding ligand [6]: no change in FRET ratio

C[C@H](O)[C@@H](O)[C@@H](O)[C@H](O)C=O [L-fucose]
difference between the affinity of SMc02774-CY for L-fucose compared to its affinity for L-rhamnose [8]: three order-magnitude difference
Kd [8]: 3.6 nM
Kd [9]: 19000 nM
Kd [1]: 11000 nM

O=C[C@H](O)[C@@H](O)[C@H](O)CO [xylose]
change in FRET with compound [7]: no change in FRET

O=C(O)CC(=O)C(=O)O [oxaloacetate]
Kd [3]: 16000 nM
